According to patent US20170036969A1, “NITRIFICATION INHIBITORS” (BASF SE, priority 2014, published 2017):

Test system: nitrification in soil sampled fresh from a field (e.g. Limburgerhof)
Experiment: Soil nitrification inhibition test (48 well plate, ammonium sulfate + NaClO3, colour reaction read at 540 nm)
Settings: dose of 10 ppm, room temperature, up to 72 hrs
Experimental: Soil was sampled fresh from a field (e.g. Limburgerhof), dried and sieved through a 500 μm sieve. Approximately 200 mg of soil were placed into each well of a 48 well plate. Compounds, or DMSO alone, were added at a concentration of 10 ppm, dissolved in 1% DMSO. 6 μmol ammonium sulfate was added per well as well as 4.8 mg NaClO3.
Subsequently, the samples were incubated at room temperature for up to 72 hrs. After the incubation period 64 mg KCl were added and mixed. 25 μl of the supernatant were placed into a fresh plate and 260 μl of a color reaction solution (from Merck Nr 1.11799.0100) were added.
Measurements were taken with a Tecan plate Reader at 540 nm wavelength.
The inhibition in % is calculated by the equation [(a−b)/a]×100, wherein a is the nitrification rate in the presence of the control (which is assumed to be 100%), and b is the nitrification rate in the presence of the tested compound.

Row | SMILES | Rating (inhibition; best rating obtained for a compound)
1 | C#CCOc1ccc(OCC#C)cc1 | 66%
2 | C#CCOc1cccc(C(O)C#C)c1 (stereo not shown) | 61%
3 | C#CCOc1ccc(Cl)cc1 | 59%
4 | C#CCOc1ccc(OC)cc1 | 58%
5 | C#CCOc1ccc(C(=O)N2CCOCC2)cc1 | 57%
6 | C#CCOc1cc(N)c(F)cc1Cl | 62%
7 | C#CCOc1cc(NC(=S)N(N)CCO)c(F)cc1Cl | 56%
8 | C#CCOc1ccc(NC(=O)N(C)C)cc1Cl | 55%
9 | C#CCOc1ccc(C#N)cc1 | 53%
10 | C#CCOc1cc(NC=O)c(F)cc1Cl | 48%
